Reference: patent US20210255193A1, “LYSINE REACTIVE PROBES AND USES THEREOF” (The Scripps Research Institute, priority 2017, published 2021)

Tests used:
Assay in all cases: competitive isoTOP-ABPP
Assay type in all cases: binding
[1] = biological target: T1, MTOR Serine/threonine-protein kinase mTOR (Homo sapiens, UniProt P42345); conditions: for isoTOP-ABPP reactivity ratio at lysine P42345_K2066 / isoTOP-ABPP ratio (R) at liganded lysine P42345_K2066: 50 uM, in vitro; for isoTOP-ABPP reactivity ratio at lysine P42345_K2066: 231 sol; for isoTOP-ABPP ratio (R) at liganded lysine P42345_K2066: sol, 231
T1 construct: isoTOP-ABPP experiments performed in cell lysates (in vitro); endogenous in cells; host or cells: soluble proteome of human cancer cell lines (MDA-MB-231; Ramos and Jurkat also prepared)
Procedure, shortened: (§1)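 Probe: STP-alkyne, 0.1 mM, 1 h RT, after fragment pretreatment of lysate (esters 50 μM; guanidinylators 100 μM). Tags: light = compound, heavy = DMSO, via CuAAC. Replicates averaged if SD <60% of mean; otherwise lowest ratio used when any R <4.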

[2] = biological target: T2, KIAA1967 DBIRD complex subunit KIAA1967 (Homo sapiens, UniProt Q8N163); conditions: for isoTOP-ABPP reactivity ratio at lysine Q8N163_K97 / isoTOP-ABPP reactivity ratio at lysine Q8N163_K112 / isoTOP-ABPP ratio (R) at liganded lysine Q8N163_K97 / isoTOP-ABPP ratio (R) at liganded lysine Q8N163_K112: 50 uM, in vitro; for isoTOP-ABPP reactivity ratio at lysine Q8N163_K97 / isoTOP-ABPP reactivity ratio at lysine Q8N163_K112: 231 sol; for isoTOP-ABPP ratio (R) at liganded lysine Q8N163_K97 / isoTOP-ABPP ratio (R) at liganded lysine Q8N163_K112: sol, 231
T2 construct: isoTOP-ABPP experiments performed in cell lysates (in vitro); endogenous in cells; host or cells: soluble proteome of human cancer cell lines (MDA-MB-231; Ramos and Jurkat also prepared)
T2 sequence (Q8N163 whole entry, one chain of several): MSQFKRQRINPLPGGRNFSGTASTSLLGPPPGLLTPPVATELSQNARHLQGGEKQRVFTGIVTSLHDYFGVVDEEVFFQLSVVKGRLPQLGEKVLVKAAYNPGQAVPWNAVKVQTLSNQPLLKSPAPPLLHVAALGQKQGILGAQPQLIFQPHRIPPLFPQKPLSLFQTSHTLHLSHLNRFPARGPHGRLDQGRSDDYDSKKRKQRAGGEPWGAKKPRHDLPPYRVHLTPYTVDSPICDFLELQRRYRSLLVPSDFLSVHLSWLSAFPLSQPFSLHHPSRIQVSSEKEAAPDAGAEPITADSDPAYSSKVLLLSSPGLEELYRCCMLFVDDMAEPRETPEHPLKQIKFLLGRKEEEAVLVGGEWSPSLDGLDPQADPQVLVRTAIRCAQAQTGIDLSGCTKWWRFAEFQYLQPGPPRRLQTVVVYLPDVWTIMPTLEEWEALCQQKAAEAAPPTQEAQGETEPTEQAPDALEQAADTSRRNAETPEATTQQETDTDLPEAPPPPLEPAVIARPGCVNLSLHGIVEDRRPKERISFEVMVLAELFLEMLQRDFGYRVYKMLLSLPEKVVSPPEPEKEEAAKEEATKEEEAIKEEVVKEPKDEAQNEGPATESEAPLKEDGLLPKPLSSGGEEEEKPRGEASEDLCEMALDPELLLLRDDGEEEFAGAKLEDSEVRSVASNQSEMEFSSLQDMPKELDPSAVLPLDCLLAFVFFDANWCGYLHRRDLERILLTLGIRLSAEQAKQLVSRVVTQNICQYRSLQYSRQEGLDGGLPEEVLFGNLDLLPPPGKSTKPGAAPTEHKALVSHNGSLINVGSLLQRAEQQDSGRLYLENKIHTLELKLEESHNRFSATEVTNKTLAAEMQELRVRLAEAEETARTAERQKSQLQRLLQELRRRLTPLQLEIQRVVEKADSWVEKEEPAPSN
Procedure, shortened: as §1

[3] = biological target: T3, PFKM 6-phosphofructokinase, muscle type (Homo sapiens, UniProt P08237); conditions: for isoTOP-ABPP reactivity ratio at lysine P08237_K678 / isoTOP-ABPP ratio (R) at liganded lysine P08237_K678: 50 uM, in vitro; for isoTOP-ABPP reactivity ratio at lysine P08237_K678: 231 sol; for isoTOP-ABPP ratio (R) at liganded lysine P08237_K678: sol, 231
T3 construct: isoTOP-ABPP experiments performed in cell lysates (in vitro); endogenous in cells; host or cells: MDA-MB-231 soluble lysate
T3 sequence (P08237 1-780): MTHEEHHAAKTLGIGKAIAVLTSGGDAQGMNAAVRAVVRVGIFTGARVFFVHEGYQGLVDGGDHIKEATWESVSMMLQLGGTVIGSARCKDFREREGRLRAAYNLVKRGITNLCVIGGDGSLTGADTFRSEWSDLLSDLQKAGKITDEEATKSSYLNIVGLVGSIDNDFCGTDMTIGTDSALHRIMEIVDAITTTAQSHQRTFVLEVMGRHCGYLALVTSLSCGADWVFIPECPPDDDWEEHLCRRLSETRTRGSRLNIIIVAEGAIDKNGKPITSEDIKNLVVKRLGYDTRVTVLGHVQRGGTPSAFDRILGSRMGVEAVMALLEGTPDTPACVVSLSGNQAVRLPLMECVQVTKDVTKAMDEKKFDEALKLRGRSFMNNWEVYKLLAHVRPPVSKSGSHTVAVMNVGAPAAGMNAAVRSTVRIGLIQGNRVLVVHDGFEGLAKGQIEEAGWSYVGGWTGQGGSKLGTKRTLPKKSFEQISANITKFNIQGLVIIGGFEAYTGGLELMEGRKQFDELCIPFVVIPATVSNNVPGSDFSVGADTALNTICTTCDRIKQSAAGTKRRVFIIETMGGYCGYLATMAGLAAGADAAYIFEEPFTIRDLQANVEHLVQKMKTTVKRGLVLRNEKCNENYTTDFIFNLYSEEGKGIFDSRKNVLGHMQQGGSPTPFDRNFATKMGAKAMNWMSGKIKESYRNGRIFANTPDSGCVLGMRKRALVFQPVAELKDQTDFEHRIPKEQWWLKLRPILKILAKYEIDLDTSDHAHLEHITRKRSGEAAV
Procedure, shortened: as §1

[4] = biological target: T4, GLUD1 Glutamate dehydrogenase 1, mitochondrial (Homo sapiens, UniProt P00367); conditions: for isoTOP-ABPP reactivity ratio at lysine P00367_K480 / isoTOP-ABPP ratio (R) at liganded lysine P00367_K480: 50 uM, in vitro; for isoTOP-ABPP reactivity ratio at lysine P00367_K480: 231 sol; for isoTOP-ABPP ratio (R) at liganded lysine P00367_K480: sol, 231
T4 construct: isoTOP-ABPP experiments performed in cell lysates (in vitro); endogenous in cells; host or cells: MDA-MB-231 soluble lysate
T4 sequence (P00367 54-558): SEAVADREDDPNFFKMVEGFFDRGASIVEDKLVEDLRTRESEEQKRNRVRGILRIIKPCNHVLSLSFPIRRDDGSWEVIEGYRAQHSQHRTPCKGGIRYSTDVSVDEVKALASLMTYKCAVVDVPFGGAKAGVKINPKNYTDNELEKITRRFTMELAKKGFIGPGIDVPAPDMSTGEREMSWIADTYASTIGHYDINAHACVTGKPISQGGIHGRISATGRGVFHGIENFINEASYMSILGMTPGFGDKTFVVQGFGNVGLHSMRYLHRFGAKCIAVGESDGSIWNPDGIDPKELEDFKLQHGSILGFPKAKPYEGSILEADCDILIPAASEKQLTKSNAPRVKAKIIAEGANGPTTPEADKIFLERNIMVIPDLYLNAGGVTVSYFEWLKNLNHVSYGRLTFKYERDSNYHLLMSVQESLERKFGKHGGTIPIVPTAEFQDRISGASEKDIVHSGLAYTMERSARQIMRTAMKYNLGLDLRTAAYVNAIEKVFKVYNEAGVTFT
Procedure, shortened: as §1

[5] = biological target: T5, POLR2L DNA-directed RNA polymerases I, II, and III subunit (Homo sapiens, UniProt P62875); conditions: 50 uM, in vitro, sol, 231
T5 construct: isoTOP-ABPP experiments performed in cell lysates (in vitro); endogenous in cells; host or cells: soluble proteome of human cancer cell lines (MDA-MB-231, Ramos, Jurkat)
Procedure, shortened: as §1

Row | Structure (SMILES) | isoTOP-ABPP reactivity ratio at lysine P42345_K2066 [1] | isoTOP-ABPP reactivity ratio at lysine Q8N163_K97 [2] | isoTOP-ABPP reactivity ratio at lysine Q8N163_K112 [2] | isoTOP-ABPP reactivity ratio at lysine P08237_K678 [3] | isoTOP-ABPP reactivity ratio at lysine P00367_K480 [4] | isoTOP-ABPP ratio (R) at liganded lysine P08237_K678 [3] | isoTOP-ABPP ratio (R) at liganded lysine P00367_K480 [4] | isoTOP-ABPP ratio (R) at liganded lysine Q8N163_K97 [2] | isoTOP-ABPP ratio (R) at liganded lysine Q8N163_K112 [2] | isoTOP-ABPP ratio (R) at liganded lysine P62875_K67 [5] | also measured
1 | O=C(CCc1cn(-c2ccccc2)nc1-c1ccccc1)Oc1ccc([N+](=O)[O-])cc1[N+](=O)[O-] [fragment 29, 2,4-Dinitrophenyl 3-(1,3-diphenyl-1H-pyrazol-4-yl)propanoate] | 1.0 | 0.8 | 1.2 | 1.8 | 1.9 | – | – | – | – | – | –
2 | Cn1cc(CC(=O)Oc2ccc([N+](=O)[O-])cc2[N+](=O)[O-])c2ccccc21 [fragment 32, 2,4-Dinitrophenyl 2-(1-methyl-1H-indol-3-yl)acetate] | 8.0 | 1.1 | 1.2 | 15.4 | 4.4 | – | – | – | – | – | –
3 | COc1cc(CCC(=O)Oc2ccc([N+](=O)[O-])cc2[N+](=O)[O-])cc(OC)c1OC [fragment 33, 2,4-Dinitrophenyl 3-(3,4,5-trimethoxyphenyl)propanoate] | 1.1 | 0.7 | 0.9 | 4.0 | 6.2 | – | – | – | – | – | –
4 | O=C(CC12CC3CC(CC(C3)C1)C2)Oc1ccc([N+](=O)[O-])cc1[N+](=O)[O-] [fragment 38, 2,4-Dinitrophenyl 2-(adamantan-1-yl)acetate] | – | – | – | – | – | 1.0 | 1.3 | – | – | – | isoTOP-ABPP ratio (R) at liganded lysine P42345_K2066 [1]: 1.1
5 | O=C(Oc1ccc([N+](=O)[O-])cc1[N+](=O)[O-])c1ccc(Oc2ccccc2)cc1 [fragment 39, 2,4-Dinitrophenyl 4-phenoxybenzoate] | – | – | – | – | – | 1.0 | 1.0 | 0.9 | 1.1 | 0.9 | –
6 | CC(C)(C)OC(=O)NCCCC(=O)Oc1ccc([N+](=O)[O-])cc1[N+](=O)[O-] [fragment 41, 2,4-Dinitrophenyl 4-((tert-butoxycarbonyl)amino)butanoate] | – | – | – | – | – | 2.0 | 3.7 | 1.0 | 1.3 | 2.6 | –
7 | O=C(Oc1ccc([N+](=O)[O-])cc1[N+](=O)[O-])C(c1ccccc1)(c1ccccc1)c1ccccc1 [fragment 42, 2,4-Dinitrophenyl 2,2,2-triphenylacetate] | – | – | – | – | – | 0.9 | 1.1 | 1.0 | 1.1 | 1.0 | –
8 | CC(=O)Oc1ccc([N+](=O)[O-])cc1[N+](=O)[O-] [fragment 43, 2,4-Dinitrophenyl acetate] | – | – | – | – | – | 1.3 | 3.9 | 0.9 | 1.0 | – | isoTOP-ABPP ratio (R) at liganded lysine P42345_K2066 [1]: 1.6
9 | COC(=O)NC(=NC(=O)OCC1c2ccccc2-c2ccccc21)n1cccn1 [fragment 49, N-Methoxycarbonyl-N′-9-fluorenylmethoxycarbonyl-pyrazole-1-carboxamidine] | – | – | – | – | – | – | – | – | – | – | isoTOP-ABPP ratio, lysine P42345_K2066 ([1]; 100 uM_231_sol_in vitro): 1.0; isoTOP-ABPP ratio, lysine Q8N163_K97 ([2]; 100 uM_231_sol_in vitro): 9.4; isoTOP-ABPP ratio, lysine Q8N163_K112 ([2]; 100 uM_231_sol_in vitro): 20.0; isoTOP-ABPP ratio, lysine P08237_K678 ([3]; 100 uM_231_sol_in vitro): 5.4; isoTOP-ABPP ratio, lysine P00367_K480 ([4]; 100 uM_231_sol_in vitro, possible other lysine P00367_K477): 2.0
